Experimental data reported in PubChem BioAssay AID588622 (NMMLSC, 2011).
Activity calls are given as the source filed them. No rule for the calls is given here.

These compounds were tested against Cdc42WT (assay: GTPase panel nucleotide binding inhibition – biochemical, bead flow cytometry, Mg non-chelator buffer, round 2, SAR follow-up (AID 588622)). Settings: bead-based flow cytometry multiplex GTP binding.
Compound COc1ccc(C(=O)NC(=S)Nc2sc3c(c2C(=O)O)CC(C)(C)OC3)cc1 has an EC50 of 203 nM.
For CC(C)(C)C1Cc2c(sc(NC(=S)NC(=O)c3ccccc3)c2C(=O)O)CO1 (stereo not given), the EC50 was 164 nM.
O=C(NC(=S)Nc1sc2c(c1C(=O)O)CC1(CCCC1)OC2)c1ccccc1 gave an EC50 of 50 nM.
Compound CC1(C)Cc2c(sc(NC(=S)NC(=O)C3CCCCC3)c2C(=O)O)CO1 has an EC50 of 660 nM.
CC1(C)Cc2c(sc(NC(=S)NC(=O)c3cccc(F)c3)c2C(=O)O)CO1 showed an EC50 of 689 nM.
Cc1ccccc1C(=O)NC(=S)Nc1sc2c(c1C(=O)O)CC(C)(C)OC2 gave an EC50 of 352 nM.
Work on CC1(C)Cc2c(sc(NC(=S)NC(=O)c3ccc(F)cc3)c2C(=O)O)CO1 yielded an EC50 of 171 nM.
For CC1(C)Cc2c(sc(NC(=S)NC(=O)c3ccco3)c2C(=O)O)CO1, the EC50 was 62 nM.
Compound CC1(C)Cc2c(sc(NC(=S)NC(=O)c3cccs3)c2C(=O)O)CO1 has an EC50 of 30 nM.
For CC1(C)CCc2sc(NC(=S)NC(=O)c3ccccc3)c(C(=O)O)c2C1, the EC50 was 62 nM.
Work on COc1cccc(C(=O)NC(=S)Nc2sc3c(c2C(=O)O)CC(C)(C)OC3)c1 yielded an EC50 of 251 nM.
CC1(C)Cc2c(sc(NC(=S)NC(=O)c3ccccc3Br)c2C(=O)O)CO1 was tested, and the EC50 was 1560 nM.
With CCC1(C)Cc2c(sc(NC(=S)NC(=O)c3ccccc3)c2C(=O)O)CO1 (stereo not given) the EC50 was 51 nM.
Cc1cccc(C(=O)NC(=S)Nc2sc3c(c2C(=O)O)CC(C)(C)OC3)c1 showed an EC50 of 1680 nM.
Compound CC1(C)Cc2c(sc(NC(=S)NC(=O)c3ccccc3F)c2C(=O)O)CO1 has an EC50 of 443 nM.
Work on Cc1ccc(C(=O)NC(=S)Nc2sc3c(c2C(=O)O)CC(C)(C)OC3)cc1 yielded an EC50 of 109 nM.
For CC1(C)Cc2c(sc(NC(=S)NC(=O)c3ccc(Br)cc3)c2C(=O)O)CO1, the EC50 was 539 nM.

Same assay, conditions: bead-based flow cytometry multiplex GTP binding, at 100 µM (top of the series)
For CC1(C)Cc2c(sc(NC(=S)NC(=O)c3cccc(Br)c3)c2C(=O)O)CO1, the “% response (lower = inhibition)” value was “inactive”.
With CC1(C)Cc2c(sc(NC(=S)Nc3ccccc3)c2C(=O)O)CO1 the “% response (lower = inhibition)” value was “inactive”.
COc1ccccc1C(=O)NC(=S)Nc1sc2c(c1C(=O)O)CC(C)(C)OC2 was tested, and the “% response (lower = inhibition)” value was “inactive”.

The compounds below were run against Rab7 in the same assay as above. Settings: bead-based flow cytometry multiplex GTP binding.
COc1ccc(C(=O)NC(=S)Nc2sc3c(c2C(=O)O)CC(C)(C)OC3)cc1 was tested, and the EC50 was 214 nM.
CC(C)(C)C1Cc2c(sc(NC(=S)NC(=O)c3ccccc3)c2C(=O)O)CO1 (stereo not given) showed an EC50 of 218 nM.
O=C(NC(=S)Nc1sc2c(c1C(=O)O)CC1(CCCC1)OC2)c1ccccc1 gave an EC50 of 33 nM.
For CC1(C)Cc2c(sc(NC(=S)NC(=O)C3CCCCC3)c2C(=O)O)CO1, the EC50 was 461 nM.
In the case of CC1(C)Cc2c(sc(NC(=S)NC(=O)c3cccc(F)c3)c2C(=O)O)CO1, the EC50 is reported as 423 nM.
For Cc1ccccc1C(=O)NC(=S)Nc1sc2c(c1C(=O)O)CC(C)(C)OC2, the EC50 was 523 nM.
CC1(C)Cc2c(sc(NC(=S)NC(=O)c3ccc(F)cc3)c2C(=O)O)CO1 gave an EC50 of 77 nM.
With CC1(C)Cc2c(sc(NC(=S)NC(=O)c3ccco3)c2C(=O)O)CO1 the EC50 was 82 nM.
Work on CC1(C)Cc2c(sc(NC(=S)Nc3ccccc3)c2C(=O)O)CO1 yielded an EC50 of 4990 nM.
For CC1(C)Cc2c(sc(NC(=S)NC(=O)c3cccs3)c2C(=O)O)CO1, the EC50 was 25 nM.
With CC1(C)CCc2sc(NC(=S)NC(=O)c3ccccc3)c(C(=O)O)c2C1 the EC50 was 69 nM.
For COc1cccc(C(=O)NC(=S)Nc2sc3c(c2C(=O)O)CC(C)(C)OC3)c1, the EC50 was 323 nM.
In the case of CC1(C)Cc2c(sc(NC(=S)NC(=O)c3ccccc3Br)c2C(=O)O)CO1, the EC50 is reported as 1250 nM.
CCC1(C)Cc2c(sc(NC(=S)NC(=O)c3ccccc3)c2C(=O)O)CO1 (stereo not given) was tested, and the EC50 was 35 nM.
Work on Cc1cccc(C(=O)NC(=S)Nc2sc3c(c2C(=O)O)CC(C)(C)OC3)c1 yielded an EC50 of 325 nM.
With CC1(C)Cc2c(sc(NC(=S)NC(=O)c3ccccc3F)c2C(=O)O)CO1 the EC50 was 316 nM.
Cc1ccc(C(=O)NC(=S)Nc2sc3c(c2C(=O)O)CC(C)(C)OC3)cc1 was tested, and the EC50 was 97 nM.
CC1(C)Cc2c(sc(NC(=S)NC(=O)c3ccc(Br)cc3)c2C(=O)O)CO1 gave an EC50 of 431 nM.

Same assay, conditions: bead-based flow cytometry multiplex GTP binding, at 100 µM (top of the series)
In the case of CC1(C)Cc2c(sc(NC(=S)NC(=O)c3cccc(Br)c3)c2C(=O)O)CO1, the “% response (lower = inhibition)” value is reported as “inactive”.
With COc1ccccc1C(=O)NC(=S)Nc1sc2c(c1C(=O)O)CC(C)(C)OC2 the “% response (lower = inhibition)” value was “inactive”.

The compounds below were run against RacACT in the same assay as above. Settings: bead-based flow cytometry multiplex GTP binding.
Compound COc1ccc(C(=O)NC(=S)Nc2sc3c(c2C(=O)O)CC(C)(C)OC3)cc1 has an EC50 of 243 nM.
Work on CC(C)(C)C1Cc2c(sc(NC(=S)NC(=O)c3ccccc3)c2C(=O)O)CO1 (stereo not given) yielded an EC50 of 146 nM.
For O=C(NC(=S)Nc1sc2c(c1C(=O)O)CC1(CCCC1)OC2)c1ccccc1, the EC50 was 80 nM.
CC1(C)Cc2c(sc(NC(=S)NC(=O)C3CCCCC3)c2C(=O)O)CO1 showed an EC50 of 397 nM.
Cc1ccccc1C(=O)NC(=S)Nc1sc2c(c1C(=O)O)CC(C)(C)OC2 gave an EC50 of 370 nM.
CC1(C)Cc2c(sc(NC(=S)NC(=O)c3ccc(F)cc3)c2C(=O)O)CO1 showed an EC50 of 133 nM.
Compound CC1(C)Cc2c(sc(NC(=S)NC(=O)c3ccco3)c2C(=O)O)CO1 has an EC50 of 59 nM.
For CC1(C)Cc2c(sc(NC(=S)NC(=O)c3cccs3)c2C(=O)O)CO1, the EC50 was 27 nM.
In the case of CC1(C)CCc2sc(NC(=S)NC(=O)c3ccccc3)c(C(=O)O)c2C1, the EC50 is reported as 48 nM.
CC1(C)Cc2c(sc(NC(=S)NC(=O)c3ccccc3Br)c2C(=O)O)CO1 gave an EC50 of 1180 nM.
